Like-named read-outs stand apart in the source and are kept apart here.
Tested on: T1, synaptosomal proteome
T1 construct: from tissue; host or cells: brain synaptosomes of male C57/B6 mice
Assay type: binding, mouse
Description: Synaptosomes were resuspended to 1 mg of protein/ml in HEPES buffer medium (in mM: 140 NaCl, 5 KCl, 5 NaHCO3, 1.2 NaH2PO4, 1 MgCl2, 10 glucose, and 10 HEPES (pH 7.4)). […] The samples were allowed to equilibrate for 5 min before being transferred to a parafilm-sealed 1-mm path length quartz cuvette. The sample was then irradiated for 20 min at a peak bandwidth of 350 nm (Rayonet RPR-3500 lamp) ∼6 cm from the light source. Non-irradiated samples were left in the dark at ambient temperature (22–25 °C) for 20 min. All remaining procedures were conducted with restricted light exposure.
To 750 μg of photolabeled or control synaptosome samples, 40 μl of 10% SDS and 2 μl of 5 mM DTT in water were added. Samples were then vortexed, heated for 10 min at 65 °C, and then briefly cooled. Final concentrations of 150 μM azide-biotin (Click Chemistry Tools), 2 mM tris(3-hydroxypropyltriazolylmethyl)amine (Sigma), 1 mM ascorbic acid (Sigma), and 1 mM CuSO4·5H2O (Sigma) were added to each sample and vortexed vigorously. The samples were left in the dark at ambient temperature (22–25 °C) for 1 h with mild agitation. Directly to each sample 4× volume chilled methanol, 1.5× chilled chloroform, and 3× chilled double distilled H2O were added. Samples were vortexed vigorously and centrifuged at 1,400 × g for 30 min at 4 °C. Both liquid layers were carefully removed, and the protein pellet was washed with 2 ml of 1:1 (v/v) chilled methanol/chloroform. Samples were centrifuged at 3,500 × g for 30 min at 4 °C. Protein pellets were briefly air-dried before further processing.
750 μg of biotin-conjugated protein sample was resuspended in 500 μl of 25 mM NH4HCO3 and 6 M urea in water. Next, 150 μl of 5% Triton X-100 in water, 50 μl of 10% SDS in water, and 1.5 μl of 0.5 M DTT were added. The samples were heated for 15 min at 65 °C. After briefly cooling, 14 μl of 0.5 M iodoacetamide in water was added, and the sample was left in the dark for 45 min. […] The supernatant was diluted to 4 ml with PBS, and 2 ml of PBS containing 100 μl of 50% streptavidin-agarose resin (Thermo Scientific) was added. Biotinylated proteins within the sample were captured over resin overnight at 4 °C with mild agitation. The resin was first washed with 6 ml of 1% SDS in PBS, and then 7 ml of 0.1 M urea in PBS followed by 10 ml of PBS. The resin underwent a final wash with 0.9 ml of 50 mM Tris-HCl and 1 mM CaCl2 in water (pH 8.0) and then resuspended in 200 μl of 50 mM Tris-HCl, 1 mM CaCl2 in water (pH 8.0), and 2 μg of porcine sequencing grade trypsin (Promega). Samples were digested overnight at 37 °C. Samples were then centrifuged at 2,000 × g for 4 min, and digest supernatant was decanted. Beads were washed in 100 μl of PBS centrifuged at 5,200 × g for 5 min, and the wash was combined with the digest supernatant. To the combined sample, trifluoroacetic acid (TFA) was added to 0.4% (v/v) or until pH <2. The sample was desalted with Oasis C18 10-mg columns (Waters) as described previously ([66]). The eluted sample was dried by speed vac and resuspended in 0.1 M HEPES buffer (pH 8.5). […] Appropriate corresponding TMTsixplex^TM-labeled samples were pooled and dried by speed vac. The combined samples were resuspended in 0.5% acetic acid in water and pH-corrected with acetic acid until pH was <2. 40 μg of protein was desalted with C18 stage tips prepared in-house and dried by speed vac.
Samples were resuspended in 10 mM KH2PO4 (pH 2.6), 30% acetonitrile (v/v) in water, and fractionated by off-line strong cation exchange chromatography prior to mass spectrometry (MS) analysis similar to as reported previously ([66]). The full synaptosome proteome control was prepared similarly without TMTsixplex^TM labeling.
All TMT samples were analyzed with three-stage mass spectrometry (MS3) TMTsixplex^TM quantification workflow as described previously ([34]).

[1] = protein A2AGI3 Neuroligin-3 (Nlgn3)
[2] = protein A2AWI7 Endophilin-B2 (Sh3glb2)
[3] = protein D3Z5T2 Armadillo repeat-containing protein 10 (Armc10)
[4] = protein E9Q3V6 Septin-2 (Sept2)
[5] = protein F7C846 Metaxin-1 (Mtx1)
[6] = protein F8WGD9 1-acyl-sn-glycerol-3-phosphate acyltransferase epsilon (Agpat5)
[7] = protein G3UYZ1 Immunoglobulin superfamily member 8 (Igsf8)
[8] = protein G5E829 Plasma membrane calcium-transporting ATPase 1 (Atp2b1)
[9] = protein O09111 NADH dehydrogenase [ubiquinone] 1 beta subcomplex subunit 11, mitochondrial (Ndufb11)
[10] = protein O35114 Lysosome membrane protein 2 (Scarb2)
[11] = protein O35526 Syntaxin-1A (Stx1a)
[12] = protein O35874 Neutral amino acid transporter A (Slc1a4)

## C#CCOCc1ccc(C2(C(F)(F)F)N=N2)cc1O [AziPm-click (1), 2-((prop-2-yn-1-yloxy)methyl)-5-(3-(trifluoromethyl)-3H-diazirin-3-yl)phenol]
B1AU25 Aifm1
  Log2( Mean 'UV/ No UV'): 4.01
  TMT Ratio Mean 'UV/ No UV': 16.13
O35633-2 Slc32a1
  Log2( Mean 'UV/ No UV'): 4.34
O35678 Mgll
  Log2( Mean 'UV/ No UV'): 4.63
  TMT Ratio Mean 'UV/ No UV': 24.71
P07724 Alb
  Log2( Mean 'UV/ No UV'): 4.39
  TMT Ratio Mean 'UV/ No UV': 20.95
P08226 Apoe
  Log2( Mean 'UV/ No UV'): 3.80
  TMT Ratio Mean 'UV/ No UV': 13.94
P17665 Cox7c
  Log2( Mean 'UV/ No UV'): 4.31
  TMT Ratio Mean 'UV/ No UV': 19.82
P19157 Gstp1
  Log2( Mean 'UV/ No UV'): 3.61
  TMT Ratio Mean 'UV/ No UV': 12.21
P23242 Gja1
  Log2( Mean 'UV/ No UV'): 3.58
  TMT Ratio Mean 'UV/ No UV': 11.95
P31648 Slc6a1
  Log2( Mean 'UV/ No UV'): 4.60
  TMT Ratio Mean 'UV/ No UV': 24.21
P35279 Rab6a
  Log2( Mean 'UV/ No UV'): 3.67
  TMT Ratio Mean 'UV/ No UV': 12.71
P40237 Cd82
  Log2( Mean 'UV/ No UV'): 3.95
  TMT Ratio Mean 'UV/ No UV': 15.49
P42125 Eci1
  Log2( Mean 'UV/ No UV'): 4.01
  TMT Ratio Mean 'UV/ No UV': 16.13
P51150 Rab7a
  Log2( Mean 'UV/ No UV'): 3.54
  TMT Ratio Mean 'UV/ No UV': 11.65
P60879-2 Snap25
  Log2( Mean 'UV/ No UV'): 4.57
P61294 Rab6b
  Log2( Mean 'UV/ No UV'): 3.78
  TMT Ratio Mean 'UV/ No UV': 13.75
P61620 Sec61a1
  Log2( Mean 'UV/ No UV'): 4.06
  TMT Ratio Mean 'UV/ No UV': 16.63
P63011 Rab3a
  Log2( Mean 'UV/ No UV'): 3.83
  TMT Ratio Mean 'UV/ No UV': 14.19
P63037 Dnaja1
  Log2( Mean 'UV/ No UV'): 3.64
  TMT Ratio Mean 'UV/ No UV': 12.46
P63213 Gng2
  Log2( Mean 'UV/ No UV'): 3.65
  TMT Ratio Mean 'UV/ No UV': 12.51
Q5ICG5 Acsl6
  Log2( Mean 'UV/ No UV'): 3.88
  TMT Ratio Mean 'UV/ No UV': 14.71
Q5SW88 Rab1
  Log2( Mean 'UV/ No UV'): 3.58
  TMT Ratio Mean 'UV/ No UV': 11.95
Q8BXV2 Bri3bp
  Log2( Mean 'UV/ No UV'): 3.89
  TMT Ratio Mean 'UV/ No UV': 14.84
Q8C3X2 Ccdc90b
  Log2( Mean 'UV/ No UV'): 4.00
  TMT Ratio Mean 'UV/ No UV': 16.04
Q8K4X7 Agpat4
  Log2( Mean 'UV/ No UV'): 4.25
  TMT Ratio Mean 'UV/ No UV': 18.96
Q8R5J9 Arl6ip5
  Log2( Mean 'UV/ No UV'): 4.56
  TMT Ratio Mean 'UV/ No UV': 23.65
Q9CXJ4 Abcb8
  Log2( Mean 'UV/ No UV'): 3.93
  TMT Ratio Mean 'UV/ No UV': 15.28
Q9CZS1 Aldh1b1
  Log2( Mean 'UV/ No UV'): 4.40
  TMT Ratio Mean 'UV/ No UV': 21.11
Q9CZT8 Rab3b
  Log2( Mean 'UV/ No UV'): 3.73
  TMT Ratio Mean 'UV/ No UV': 13.26
Q9D5T0 Atad1
  Log2( Mean 'UV/ No UV'): 3.65
  TMT Ratio Mean 'UV/ No UV': 12.57
Q9EP69 Sacm1l
  Log2( Mean 'UV/ No UV'): 4.04
  TMT Ratio Mean 'UV/ No UV': 16.45
Q9ER00 Stx12
  Log2( Mean 'UV/ No UV'): 3.85
  TMT Ratio Mean 'UV/ No UV': 14.40
Q9Z2I0 Letm1
  Log2( Mean 'UV/ No UV'): 4.32
  TMT Ratio Mean 'UV/ No UV': 19.93
Q80ZW2 Them6
  Log2( Mean 'UV/ No UV'): 4.50
  TMT Ratio Mean 'UV/ No UV': 22.62
Q99JY8 Ppap2b
  Log2( Mean 'UV/ No UV'): 4.16
  TMT Ratio Mean 'UV/ No UV': 17.86
Q00915 Rbp1
  Log2( Mean 'UV/ No UV'): 4.46
  TMT Ratio Mean 'UV/ No UV': 22.07
Q60771 Cldn11
  Log2( Mean 'UV/ No UV'): 4.48
  TMT Ratio Mean 'UV/ No UV': 22.33
[1]
  Log2( Mean 'UV/ No UV'): 3.89
  TMT Ratio Mean 'UV/ No UV': 14.80
[2]
  Log2( Mean 'UV/ No UV'): 3.55
  TMT Ratio Mean 'UV/ No UV': 11.67
[3]
  Log2( Mean 'UV/ No UV'): 3.94
  TMT Ratio Mean 'UV/ No UV': 15.34
[4]
  Log2( Mean 'UV/ No UV'): 4.02
  TMT Ratio Mean 'UV/ No UV': 16.25
[5]
  Log2( Mean 'UV/ No UV'): 4.31
  TMT Ratio Mean 'UV/ No UV': 19.87
[6]
  Log2( Mean 'UV/ No UV'): 4.62
  TMT Ratio Mean 'UV/ No UV': 24.62
[7]
  Log2( Mean 'UV/ No UV'): 3.89
  TMT Ratio Mean 'UV/ No UV': 14.81
[8]
  Log2( Mean 'UV/ No UV'): 3.59
  TMT Ratio Mean 'UV/ No UV': 12.05
[9]
  Log2( Mean 'UV/ No UV'): 3.68
  TMT Ratio Mean 'UV/ No UV': 12.78
[10]
  Log2( Mean 'UV/ No UV'): 4.27
  TMT Ratio Mean 'UV/ No UV': 19.35
[11]
  Log2( Mean 'UV/ No UV'): 3.50
  TMT Ratio Mean 'UV/ No UV': 11.31
[12]
  Log2( Mean 'UV/ No UV'): 4.57
  TMT Ratio Mean 'UV/ No UV': 23.78
Protein O35963 Ras-related protein Rab-33B (Rab33b)
  Log2( Mean 'UV/ No UV'): 4.02

From publication PMC5034043 (The Journal of Biological Chemistry, 2016)
